Assay results as given in patent publication US7579432B2, “Cyclic peptides as G-protein-coupled receptor antagonists” (Promics Pty Limited, priority 2001, dated 2009).

Tests used:
[1] = test system: lower limb ischemia-reperfusion (I/R); assay: Bilateral hindlimb ischemia-reperfusion injury in rats
Experimental: Rats were subjected to 2 hours bilateral hindlimb ischemia and 4 hours reperfusion. […] (1 mg/kg) i.v., either 10 min before ischemia or 10 min prior to reperfusion, or orally (10 mg/kg) 30 min prior to ischemia. Levels of circulating creatine kinase (CK), lactate dehydrogenase (LDH), alanine and aspartate aminotransferase (ALT/AST), creatinine, blood urea nitrogen (BUN), polymorphonuclear leukocytes (PMNs) and calcium (Ca^++) and potassium (K^+) ions were determined. These biochemical indices are known to reflect tissue or organ injury following I/R events. Other parameters measured included urinary protein levels, muscle edema and myeloperoxidase (MPO) concentrations in the lung, liver and muscle along with liver homogenate TNF-α concentrations.
The study was performed in accordance with guidelines from the National Health & Medical Research Council of Australia, and the experimental protocol approved by the University of Queensland Animal Ethics Committee. Female Wistar rats weighing 250-300 g were fasted overnight before being anaesthetized with the i.p. injection of 6 mg/kg xylazine and 120 mg/kg ketamine. Anesthesia was maintained throughout the study by additional injections of ketamine. […] Bilateral hindlimb ischemia was then induced through the application of latex o-rings (marking rings; Hayes Veterinary Supplies, Brisbane, Australia) above the greater trochanter of each hind limb. Following 2 hours of ischemia, the latex rings were cut and removed and limbs allowed to reperfuse for 4 hours. Six experimental groups were used: • (a) sham-operated, • (b) ischemia-only, • (c) I/R-only, • (d) I/R+C5a antagonist (1 mg/kg, i.v.) administered 10 min prior to ischemia, • (e) I/R+C5a antagonist (10 mg/kg, p.o.) administered 30 min prior to ischemia, and • (f) I/R+C5a antagonist (1 mg/kg, i.v.) administered 10 min prior to reperfusion.
All other groups underwent 2 hours of ischemia and 4 hours of reperfusion. Sham-operated, ischemia-only and I/R groups were infused with 7% ethanol/saline 10 min prior to ischemia, instead of drug. Blood was collected throughout the study from the tail vein, and serum or plasma was stored at either 4° C. or −20° C. for later biochemical assays. Urine was collected over the last hour of the study for the determination of urinary protein levels. At the completion of the experiment, rats were euthanased, and sections of the lungs, liver and gastrocnemius muscle removed and weighed for edema, neutrophil accumulation and liver TNF-α studies.
All experimental results are expressed as means±standard error of the mean (SEM). Data analysis was performed using GraphPad Prism 3.0 software (GraphPad Software, Inc. USA). Statistical comparisons were made to sham-operated and I/R-only groups, using a one-way analysis of variance followed by a Dunnett comparison post-test analysis. Statistical significance was assessed at P<0.05.
Circulating levels of creatine kinase (CK) were measured in serum samples taken immediately after ischemia, following 1, 2 and 3 hours reperfusion, and at the completion of the study using a […] kit (Sigma, St. Louis, USA) according to the manufacturer's instructions. Serum was also taken 10 min after tourniquet release for CK measurement in I/R-only animals. A 1:5 dilution was used for samples taken after 2 hours reperfusion.

[2] = Plasma levels after topical dermal administration; assay type: in vivo, rat; settings: dermal application, 50 mg/kg, DMSO/distilled H2O or PG/H2O
Experimental: Female and male Wistar rats (200-250 g) were anaesthetized with 1 mL of zoletil (50 mg/kg) and xylazine (10 mg/kg; Lyppard, Australia), which was injected intraperitoneally. An area of 5×10 cm was shaved and marked on the lower abdominal area of the rat, on to which the dose of drug was applied. A stock solution containing 10 mg/ml of C5a antagonist was dissolved in solvents propylene glycol or dimethylsulfoxide at varying concentrations with water and smeared evenly on the shaved abdominal area of the rat with a spatula. A heating pad was used to maintain the body temperature of the rats and blood samoles were taken at 15 min intervals for the first hour, and after that at 1 hr intervals for a total period or 3 hours.
Blood samples were immediately added to tubes containing heparin (500 Units/μL) and centrifuged (11000×g). […] The fluid portions of the samples were placed in 1 mL Eppendorf tubes and stored until analysed.
These samples were transferred to 96 well plates and evaporated to dryness using a GeneVac centrifugal evaporator, then reconstituted in the wells with mobile phase (20 μL) Analysis of samples was performed by liquid chromatography (LCMS) using an Agilent 1100 series HPLC equipped with a well plate autosampler coupled with a PE Sciex Qstar Pulsar ESI-TOF mass spectrometer. Concentrations were determined from a standard curve of drug:internal standard peak area ratios. […]

[3] = I/R + 1 mg/kg i.v. pre-ischemia, 4 hours reperfusion
[4] = I/R + 1 mg/kg i.v. pre-reperfusion, 4 hours reperfusion
[5] = I/R + 10 mg/kg p.o. pre-ischemia, 4 hours reperfusion
[6] = i.v. 1 mg/kg just prior to reperfusion
[7] = prior to ischemia, i.v. 1 mg/kg or orally 10 mg/kg

CC(=O)N[C@@H](Cc1ccccc1)C(=O)N[C@H]1CCCNC(=O)[C@H](CCCNC(=N)N)NC(=O)[C@H](Cc2c[nH]c3ccccc23)NC(=O)[C@@H](CC2CCCCC2)NC(=O)[C@@H]2CCCN2C1=O [Compound 1, Ac-Phe-[Orn-Pro-dCha-Trp-Arg]]
Plasma Creatinine [1, 3]: 1.07 ± 0.07 mg/dL
Proteinuria [1, 3]: 36.4 ± 11.4 mg/dL
Serum BUN [1, 3]: 23.6 ± 1.6 mg/dL
Serum Ca++ [1, 3]: 2.46 ± 0.04 mmol/L
Serum K+ [1, 3]: 6.13 ± 0.18 mmol/L
Plasma Creatinine [1, 4]: 1.22 ± 0.05 mg/dL
Proteinuria [1, 4]: 41.2 ± 11.4 mg/dL
Serum BUN [1, 4]: 22.0 ± 2.2 mg/dL
Serum Ca++ [1, 4]: 2.45 ± 0.10 mmol/L
Serum K+ [1, 4]: 5.02 ± 0.32 mmol/L
Plasma Creatinine [1, 5]: 1.14 ± 0.14 mg/dL
Proteinuria [1, 5]: 45.8 ± 9.8 mg/dL
Serum BUN [1, 5]: 21.8 ± 2.1 mg/dL
Serum Ca++ [1, 5]: 2.49 ± 0.04 mmol/L
Serum K+ [1, 5]: 5.57 ± 0.58 mmol/L
MPO activity in hindlimb muscles, lungs and liver vs I/R-only rats ([1]; all 3 drug-treated groups): significant decreases
circulating PMN numbers vs I/R-only rats ([1]; all 3 drug-treated groups, 4 hours reperfusion): significantly decreased
adverse effects of the drug alone (changes in injury markers vs sham-operated animals) ([1]; drug alone): no adverse effects
circulating creatine kinase (CK) levels vs I/R-only rats [1, 6]: significant inhibition
circulating lactate dehydrogenase (LDH) levels vs I/R-only rats [1, 6]: significant inhibition
circulating creatine kinase (CK) levels vs I/R-only rats [1, 7]: significantly decreased levels
circulating lactate dehydrogenase (LDH) levels vs I/R-only rats [1, 7]: significantly decreased levels
appearance of the C5a antagonist in the circulating plasma [2]: ≤ 15 min
persistence of significant plasma levels [2]: at least 4 hr
